Consider 25 molecules from ChEMBL document CHEMBL3132797, “Synthesis and biological evaluation of substituted N-alkylphenyl-3,5-dinitrobenzamide analogs as anti-TB agents” (Medchemcomm, 2014).

Data set [1] deals with Mycobacterium tuberculosis. In words: Antimycobacterial activity against Mycobacterium tuberculosis H37Rv ATCC 27294 by broth dilution method. The class given is functional. On the technique in general: In broth dilution the organism is exposed to a series of concentrations in liquid medium.
Data set [2] relates to Mycobacterium tuberculosis. In words: Bactericidal activity against Mycobacterium tuberculosis H37Rv ATCC 27294 by broth dilution method. The class given is functional.
Data set [3] has as its system Mycobacterium tuberculosis. The data set is described as follows: Antimycobacterial activity against Mycobacterium tuberculosis H37Rv ATCC 27294 infected in mouse J774 cells assessed as intracellular killing after 48 hrs by colony formation assay. Particulars: H37Rv ATCC 27294, 48 h. It is filed as functional.
Data set [4] in a line: Selectivity index, ratio of IC50 for mouse J774 cells to MIC for Mycobacterium tuberculosis H37Rv ATCC 27294. The class given is toxicity, cell-based. As to conditions: read-out: Selectivity Index.
The test system of data set [5] is J774. In words: Cytotoxicity against mouse J774 cells after 24 hrs by MTT assay. It is filed as cell-based. As to conditions: J774, 24 h.
In data set [6] the test system is J774. In words: Cytotoxicity against mouse J774 cells at 20 ug/ml after 24 hrs by MTT assay. The class given is cell-based. Particulars: j774, 24 h. On the technique in general: Formazan colour is commonly taken as a measure of viable cells.

Values after ≈ are worked out from the molar mass of the structure shown.

On to `O=C(NCCCCc1ccccc1)c1cc([N+](=O)[O-])cc([N+](=O)[O-])c1`, for which the minimum inhibitory concentration (MIC) (in general, the smallest concentration in the dilution series that meets the test's criterion for growth inhibition) in data set [1] came to 0.35 µM (≈ 0.12 µg/mL). In the case of `COc1ccc([C@H](C)NC(=O)c2cc([N+](=O)[O-])cc([N+](=O)[O-])c2)cc1`, inhibition of growth in data set [1] (MIC) required 0.35 µM (≈ 0.121 µg/mL). Regarding `C[C@@H](NC(=O)c1cc([N+](=O)[O-])cc([N+](=O)[O-])c1)c1ccccc1`, the minimum bactericidal concentration (MBC) (commonly the lowest tested concentration that kills the bacteria rather than only halting them) in data set [2] worked out at 0.19 µM (≈ 0.0599 µg/mL). Also, the minimum inhibitory concentration (MIC) was found to be 0.76 µM (≈ 0.24 µg/mL) in data set [3] and 0.19 µM (≈ 0.0599 µg/mL) in data set [1]. Moreover, the selectivity ratio in data set [4] is over 333. Besides, the IC50 (usually the concentration that gives 50% inhibition) with J774 [5] was over 63.5 µM. In the data set on J774 [6], the Activity entry is on record as “Non-toxic”.

In data set [1], `C[C@H](NC(=O)c1cc([N+](=O)[O-])cc([N+](=O)[O-])c1)c1ccccc1` came in with a minimum inhibitory concentration (MIC) of over 3.17 µM. In data set [1], `CC[C@@H](NC(=O)c1cc([N+](=O)[O-])cc([N+](=O)[O-])c1)c1ccccc1` showed a minimal inhibitory concentration (MIC) of 0.76 µM (≈ 0.25 µg/mL). The molecule `CC[C@H](NC(=O)c1cc([N+](=O)[O-])cc([N+](=O)[O-])c1)c1ccccc1` returned a minimum inhibitory concentration (MIC) in data set [1] of 3.04 µM (≈ 1 µg/mL). The molecule `CCC[C@@H](NC(=O)c1cc([N+](=O)[O-])cc([N+](=O)[O-])c1)c1ccccc1` came in with a minimal inhibitory concentration (MIC) in data set [1] of 2.91 µM (≈ 0.999 µg/mL). On to `CC[C@@H](C)NC(=O)c1cc([N+](=O)[O-])cc([N+](=O)[O-])c1`, for which, in data set [1], inhibition of growth (MIC) required 1.87 µM (≈ 0.5 µg/mL). `CC[C@H](C)NC(=O)c1cc([N+](=O)[O-])cc([N+](=O)[O-])c1` showed a minimal inhibitory concentration (MIC) in data set [1] of over 3.74 µM. Same read-out and setting: to `CCCCC[C@@H](C)NC(=O)c1cc([N+](=O)[O-])cc([N+](=O)[O-])c1` belongs 1.62 µM (≈ 0.501 µg/mL). Molecule `CCCCC[C@H](C)NC(=O)c1cc([N+](=O)[O-])cc([N+](=O)[O-])c1` gave a minimum inhibitory concentration (MIC) in data set [1] of 1.62 µM (≈ 0.501 µg/mL).

Consider `CCCCCCNC(=O)c1cc([N+](=O)[O-])cc([N+](=O)[O-])c1`, for which inhibition of growth in data set [1] (MIC) required 1.69 µM (≈ 0.499 µg/mL). The same measure, in the same setting: to `CCCCCCCCCCCCCCCCNC(=O)c1cc([N+](=O)[O-])cc([N+](=O)[O-])c1` belongs 0.57 µM (≈ 0.248 µg/mL). Molecule `O=C(NCCc1ccccc1)c1cc([N+](=O)[O-])cc([N+](=O)[O-])c1` came in with an MBC in data set [2] of 0.79 µM (≈ 0.249 µg/mL). The minimum inhibitory concentration (MIC) was 3.16 µM (≈ 0.996 µg/mL) in data set [3] and 0.79 µM (≈ 0.249 µg/mL) in data set [1]. Also, the selectivity ratio in data set [4] is over 80. The IC50 in the data set with J774 [5] was over 63.5 µM. In addition, the Activity entry in the data set on J774 [6] is given as “Non-toxic”. `Cc1ccc(CNC(=O)c2cc([N+](=O)[O-])c(C)c([N+](=O)[O-])c2)cc1` had a minimal inhibitory concentration (MIC) in data set [1] of 0.09 µM (≈ 0.0296 µg/mL). Turning to `Cc1ccc(CNC(=O)c2cc([N+](=O)[O-])cc([N+](=O)[O-])c2)cc1`, it took 3.17 µM (≈ 0.999 µg/mL) to inhibit growth in data set [1] (MIC).

`O=C(NCc1ccccc1)c1cc([N+](=O)[O-])cc([N+](=O)[O-])c1` came in with a minimal inhibitory concentration (MIC) in data set [1] of 0.8 µM (≈ 0.241 µg/mL). `Cc1ccc(CCNC(=O)c2cc([N+](=O)[O-])cc([N+](=O)[O-])c2)cc1` yielded a minimal inhibitory concentration (MIC) in data set [1] of 1.52 µM (≈ 0.501 µg/mL). For the molecule `O=C(NCCCc1ccccc1)c1cc([N+](=O)[O-])cc([N+](=O)[O-])c1`, the MIC in data set [1] was 1.52 µM (≈ 0.501 µg/mL).

Take `O=C(Nc1ccc(OC(F)(F)F)cc1)c1cc([N+](=O)[O-])cc([N+](=O)[O-])c1`: the MIC in data set [1] worked out at 2.7 µM (≈ 1 µg/mL). The molecule `O=C(Nc1ccc(C(F)(F)F)cc1)c1cc([N+](=O)[O-])cc([N+](=O)[O-])c1` had a minimal inhibitory concentration (MIC) in data set [1] of 2.82 µM (≈ 1 µg/mL). In turn, `O=C(Nc1ccccc1C(F)(F)F)c1cc([N+](=O)[O-])cc([N+](=O)[O-])c1` had a minimal inhibitory concentration (MIC) in data set [1] of 1.41 µM (≈ 0.501 µg/mL). Still for that read-out and setting: under `O=C(Nc1cccc(F)c1)c1cc([N+](=O)[O-])cc([N+](=O)[O-])c1` stands 3.28 µM (≈ 1 µg/mL); under `C[C@H](c1ccccc1)N(C)C(=O)c1cc([N+](=O)[O-])cc([N+](=O)[O-])c1`, 1.52 µM (≈ 0.501 µg/mL); under `O=C(Nc1ccc(F)cc1)c1cc([N+](=O)[O-])cc([N+](=O)[O-])c1`, over 1.63 µM.
